Test results reported in patent publication US4377594A, “Derivative of 4-(N-(substituted-benzylidene)amino-methyl cyclohexane-1-carboxylic acid” (Kureha Kagaku Kogyo Kabushiki Kaisha, priority 1980, dated 1983).
Where a name gives a salt, the structure may show the parent alone. Read-outs that look alike come from different tables or passages of the source.

What was measured:
[1] = tested on: Rabbit platelet rich plasma (PRP); platelet aggregation; assay: inhibitory effect on platelet aggregation (induced by sodium arachidonate); type: cell-based; details: rabbit PRP 300,000/μl; sodium arachidonate tested at 400 μM; preincubated at 37° C. for 5 min
Method: (1) Examination method for inhibitory effect on platelet aggregation
Rabbit platelet rich plasma (PRP) was used for Aggregation Tests. PRP was prepared by centrifugation of blood collected from the ear vein of Rabbit and diluted into number-concentration 300,000/μl with platelet poor plasma. Platelet aggregation was induced by Sodium Arachidonate and monitored (measured) with a four channel platelet aggregation Tracer PAT-4A (Niko Bioscience Co., Japan). Aggregation Tracer tube contaning 230 μl PRP was preincubated at 37° C. for 5 min with each Specimen.
^(1) The minimum concentration (μM) of each Specimen for inhibitin
completely (100%) the platelet aggregating effect by sodium arachidonate

[2] = acute toxicity, peroral administration; details: in vivo, po; peroral, aqueous solution, female JCL-ICR mouse 5 to 6 weeks
Text: (§1) (3) Examination method for acute toxicity
(§2) Acute toxicity was examined by administering perorally an aqueous solution of each Specimen to female JCL-ICR mouse of 5 to 6 weeks after birth.
(§3) ^(3) Median lethal dose (LD50), that is, dose for getting 50% of
(§4) mice to death, in unit of mg per one kilogram of body weight of mouse.

[3] = tested on: Rat's polynuclear leukocyte migration; assay: inhibitory effect on polynuclear leukocyte migration (Boyden method); type: cell-based; details: read-out: Inhibition rate of polynuclear leukocyte migration
Method: (2) Examination method for inhibitory effect on polynuclear leukocyte migration
Rat's polynuclear leukocyte migration was examined by Boyden method (refer to Japanese J. Clin. Med., 27(9), 172 (1969)) as follows; a mixture of 10 parts by volume of culture filtrate of E. coli and one part by volume of serum was incubated at 37° C. for one hour and diluted into 5-times volume with physiological salt solution, and the mixture obtained was used as an attractant. After preincubating polynuclear leukocyte suspension with each specimen for 10 min, migration of polynuclear leukocytes was examined.
^(2) The average value of inhibition rate (%) of polynuclear leukocyt
migration at each concentration (μM) of each Specimen.

female JCL-ICR mouse = assay: acute toxicity, peroral administration; details: mouse, in vivo
Text: as §1, §2, §3, §4

[4] = 1 μM, average value, preincubation 10 min, rat
[5] = 10 μM, average value, preincubation 10 min, rat
[6] = 100 μM, average value, preincubation 10 min, rat
[7] = 1000 μM, average value, preincubation 10 min, rat

**Q.** For `O=C(O)[C@H]1CC[C@H](CN=Cc2ccccc2O)CC1` [I], which “Platelet aggregation ID100 (minimum concentration for inhibiting completely (100%) the platelet aggregating effect by sodium arachidonate)” value [1] is on record?
**A.** The value was over 1000 µM.

**Q.** What about the LD50 [2] of the same molecule?
**A.** The LD50 was about 2000 mg/kg.

**Q.** And the inhibition at 1 µM [3, 4]?
**A.** Its inhibition at 1 µM is 0%.

**Q.** What about the inhibition at 10 µM [3, 5] of the same molecule?
**A.** Its inhibition at 10 µM is 0%.

**Q.** And the inhibition at 100 µM [3, 6]?
**A.** The inhibition at 100 µM was 39%.

**Q.** And the inhibition at 1000 µM [3, 7]?
**A.** Its inhibition at 1000 µM is 93%.

**Q.** What does the source list for `O=C(O)[C@H]1CC[C@H](CN=Cc2ccc(O)cc2O)CC1` [III]?
**A.** Platelet aggregation ID100 (minimum concentration for inhibiting completely (100%) the platelet aggregating effect by sodium arachidonate) [1]: > 1000 µM; LD50 [2]: > 3000 mg/kg; inhibition at 1 µM [3, 4]: 0%; inhibition at 10 µM [3, 5]: 12%; inhibition at 100 µM [3, 6]: 42%; inhibition at 1000 µM [3, 7]: 92%

**Q.** Which “Platelet aggregation ID100 (minimum concentration for inhibiting completely (100%) the platelet aggregating effect by sodium arachidonate)” value [1] does the source give for `CN1CCCN(C(c2ccccc2)c2ccc(Cl)cc2)CC1` (stereo not drawn) [VI] here?
**A.** The value was over 1000 µM.

**Q.** What about the LD50 [2] of the same molecule?
**A.** Its LD50 is 350 mg/kg.

**Q.** And the inhibition at 1 µM ([3]; Rattus norvegicus)?
**A.** The inhibition at 1 µM was 15%.

**Q.** What about the inhibition at 10 µM ([3]; Rattus norvegicus) of the same molecule?
**A.** The inhibition at 10 µM was 48%.

**Q.** And the inhibition at 100 µM ([3]; Rattus norvegicus)?
**A.** The inhibition at 100 µM was 80%.

**Q.** What about the inhibition at 1000 µM ([3]; Rattus norvegicus) of the same molecule?
**A.** The inhibition at 1000 µM was 100%.

**Q.** For `O=C(O)[C@H]1CC[C@H](CN=Cc2cccc(O)c2O)CC1` [II], which LD50 [2] is on record?
**A.** Its LD50 is over 3000 mg/kg.

**Q.** What about the inhibition at 1 µM [3, 4] of the same molecule?
**A.** Its inhibition at 1 µM is 0%.

**Q.** And the inhibition at 10 µM [3, 5]?
**A.** Its inhibition at 10 µM is 25%.

**Q.** And the inhibition at 100 µM [3, 6]?
**A.** The inhibition at 100 µM was 66%.

**Q.** And the inhibition at 1000 µM [3, 7]?
**A.** The inhibition at 1000 µM was 100%.

**Q.** Which “acute toxicity (in words)” value (female JCL-ICR mouse) does the source give for `COc1cc(C=NC[C@H]2CC[C@H](C(=O)O)CC2)cc(OC)c1OC` [Example 8 sodium salt, trans-4-[N-(3',4',5'-trimethoxybenzylidene)aminomethyl]cyclohexane-1-carboxylic acid] here?
**A.** Its value is “low acute toxicity”.

**Q.** For `COc1ccc2c(c1)c(CC(=O)O)c(C)n2C(=O)c1ccc(Cl)cc1` [V], which LD50 [2] is on record?
**A.** The LD50 was 30 mg/kg.

**Q.** And the inhibition at 1 µM ([3]; Rattus norvegicus)?
**A.** The inhibition at 1 µM was 0%.

**Q.** And the inhibition at 10 µM ([3]; Rattus norvegicus)?
**A.** Its inhibition at 10 µM is 0%.

**Q.** And the inhibition at 100 µM ([3]; Rattus norvegicus)?
**A.** The inhibition at 100 µM was 25%.

**Q.** And the inhibition at 1000 µM ([3]; Rattus norvegicus)?
**A.** The inhibition at 1000 µM was 79%.

**Q.** For `COc1cc(C=NC[C@H]2CC[C@H](C(=O)O)CC2)ccc1O` [Example 9 sodium salt, trans-4-[N-(3'-methoxy-4'-hydroxybenzylidene)aminomethyl]cyclohexane-1-carboxylic acid], which “acute toxicity (in words)” value (female JCL-ICR mouse) is on record?
**A.** The value was “low acute toxicity”.

**Q.** For `COc1ccccc1C=NC[C@H]1CC[C@H](C(=O)O)CC1` [IV], which LD50 [2] is on record?
**A.** Its LD50 is over 3000 mg/kg.

**Q.** And the inhibition at 1 µM [3, 4]?
**A.** Its inhibition at 1 µM is 0%.

**Q.** And the inhibition at 10 µM [3, 5]?
**A.** Its inhibition at 10 µM is 0%.

**Q.** And the inhibition at 100 µM [3, 6]?
**A.** The inhibition at 100 µM was 27%.

**Q.** And the inhibition at 1000 µM [3, 7]?
**A.** The inhibition at 1000 µM was 94%.

**Q.** Which “acute toxicity (in words)” value (female JCL-ICR mouse) does the source give for `COc1ccc(C=NC[C@H]2CC[C@H](C(=O)O)CC2)cc1OC` [Example 7 sodium salt, sodium salt of trans-4-[N-(3',4'-dimethoxybenzylidene)aminomethyl]cyclohexane-1-carboxylic acid] here?
**A.** Its value is “low acute toxicity”.
